Values joined by “and” are separate entries in the source; they are usually repeats but may differ in a detail not shown here. Equal entries are not always repeated.

Consider four compounds from US11826355B1, “Aspirin-mimetic antioxidants for treatment of age-related cataract” (priority 2022, dated 2023).

One data set deals with lung cancer. As to conditions: 1994 ATBC RCT; cited from earlier work.
Data set [1] has as its system acute ischemia stroke (AIS) and/or ALS. As to conditions: approved for acute ischemia stroke (AIS) and/or ALS; cited from earlier work.
Data set [2] is described as follows: Body weight of rats in the cataract model study. The class given is in vivo, rat. Conditions: G1, 0.8 mg/15 mL, 10 μl 3 times/day. The procedure:
(§1) At the age of 11-12 days after birth, all suckling rats underwent a single intraperitoneal injection of sodium selenite (30 μmol/kg, i.e., 0.1 ml/10 g) for model-building. Sodium selenite solution was configured with normal saline at a concentration of 3 mM.
(§2) At the age of 19 days after birth (D-1) of the suckling rats, 30 lens opacities were selected for a cloudy rating at Class 4 or 5; Wister suckling rats were randomly divided into 5 groups (G1-G5 groups, 6 in each group); and a cage of suckling rats as G6 was randomly selected after the animals opened their eyes (14-16 days of age).
(§3) The subject suckling rats of groups G1 to G5 were treated at the age of 20 days after birth (D1), and the specific dosing information is shown in Table 1. Treatment in the G6 group was conducted after the animals opened their eyes (14-16 days old, D-6-D-4), and the specific dosing information is shown in Table 1.

Data set [3] is described as follows: General clinical observations during 60-day eye drop administration. The class given is in vivo, rat. As to conditions: eye drops 3 times/day, 60-day administration phase, all concentrations.
Description: as §2

Data set [4] deals with Wistar rat cataract model induced by sodium selenite. The data set is described as follows: Lens opacity score (slit lamp) in sodium selenite-induced cataract rat model. Set-up: lens opacity score, Mean / lens opacity score / lens opacity score, raw data per eye (OD/OS, rats 1-6): scale not given here. The class given is in vivo. Conditions: G1, 0.8 mg/15 mL, 10 μl 3 times/day. The procedure:
A new batch of eye drops solutions was prepared every week. Placebo was a solution that contained the same excipients but without the drug compound. The eye drops solutions were prepared as follows:
3. An illustrative procedure: To a 250 mL volume flask were added 25 mg each of the excipients, sodium borate, boric acid, sodium chloride, and potassium chloride, an aspirin mimetic drug compound to be tested (e.g., DPL-004, 9.0 mg), and about 200 ml of sterilized water to form a mixture. The resultant mixture was shaken well to dissolve solids; and more sterilized water was added to bring the volume of solution to 250 mL, which was shaken well and then distributed into small portions. Each portion was labeled with a concentration of 3.6 mg/100 mL and the preparation date and was stored in a refrigerator for future use.
4. Eye drops solutions comprising DPL-004 at a concentration of 36 mg/100 mL and 12 mg/100 mL were prepared similarly according to the above procedure by using 90 mg and 30 mg of DPL-004, respectively, while maintaining the same amounts of excipients as shown above.
as §1, §2, §3
At D-1, in the fourth week of treatment, the slit lamp was used at the end of administration to observe the turbidity of the lens and grade it, and the grading and scoring criteria are shown in the following Table 2.

For a further data set, the system named is prostate cancer. As to conditions: 2008 SELECT RCT; cited from earlier work.
The mark [5] stands for this setting: pH about 6.4, day -1 (before administration).

Take `CC1=C(/C=C/C(C)=C/C=C/C(C)=C/C=C/C=C(C)/C=C/C=C(C)/C=C/C2=C(C)CCCC2(C)C)C(C)(C)CCC1` [Beta-carotene only, Beta-carotene]: the “Adverse Effects: more lung cancer” value in the data set on lung cancer is recorded as 18% more lung.
For `CC1=NN(c2ccccc2)C(=O)C1` [Edaravone], the “efficacy (marginal)” value in data set [1] was 5%.
Consider `O=C(O)c1cc(O)c2c3nc4ccccc4oc-3cc(=O)c2n1` [Pirenoxine, reference compound], for which the “Body Weight, Mean” value is on record as 57.07 g in data set [2] (pH about 6.4, day 4); 96.02 g in data set [2] (pH about 6.4, day 11); 133.87 g in data set [2] (pH about 6.4, day 18); 163.00 g in data set [2] (pH about 6.4, day 25); 197.18 g in data set [2] (pH about 6.4, day 32); 219.45 g in data set [2] (pH about 6.4, day 39). Moreover, the “Body Weight, Mean” value in data set [2] (pH about 6.4, day 46) is on record as 239.75 g; in data set [2] (pH about 6.4, day 53), 255.82 g; in data set [2] (pH about 6.4, day 60), 270.00 g; in data set [2] (setting [5]) it was 43.48 g. Besides, the “abnormal symptoms (activity status, body weight, skin hair, secretion morphology and color)” value in data set [3] was “no abnormal symptoms”. For the same compound, the “lens opacity score, Mean” value turned out to be 3.42 in data set [4] (pH about 6.4, day 28); 2.92 in data set [4] (pH about 6.4, day 60); 4.00 in data set [4] (setting [5]). In addition, the “lens opacity score, raw data per eye (OD/OS, rats 1-6)” value in data set [4] (pH about 6.4, day 28) is 3 and 4; in data set [4] (pH about 6.4, day 60), 2 and 4 and 3; in data set [4] (setting [5]), 4.
For `Cc1c(C)c2c(c(C)c1O)CC[C@@](C)(CCC[C@H](C)CCC[C@H](C)CCCC(C)C)O2` [Vitamin E], the “Adverse Effects: more prostate cancer” value in the data set with prostate cancer was 17% more prostate.
